According to article PMC7272617 (Scientific Reports, 2020):
In brackets after ≈: the same amount, converted by molar mass. Where a SMILES comes first, the peptide text is derived from it.

What was measured:
[1] = test system: Pseudomonas aeruginosa ATCC 27853; conditions: ATCC 27853, 24 h
[2] = test system: Escherichia coli O157:H7 MT strain; conditions: E. coli O157:H7 MT strain; MHB, 37 °C, 24 h
[3] = test system: Vibrio cholera O1 Inaba DMST 16261; conditions: MHB, 37 °C, 24 h
[4] = test system: all Gram-positive strains; assay: Mean MIC and therapeutic index, Gram-positive strains; format: cell-based; conditions: 5 Gram-positive strains of Table 3
Protocol: (§1) The antimicrobial activity of the peptides was determined against both Gram-positive and -negative bacteria including 14 MDR P. aeruginosa clinical isolates from Bhumibol Adulyadej Hospital (Tables 1 and 3). The minimal inhibitory concentration (MIC) of each peptide was measured according to a modification of the National Committee for Clinical Laboratory Standards (NCCLS) broth microdilution method as previously described. Briefly, bacterial cells in mid-log phase were cultured in Müeller-Hinton broth (MHB) and then diluted to 10^7 CFU/ml. […] Plates were incubated at 37 °C for 24 h, and MICs were defined as the lowest concentration of peptide that prevented visible turbidity. Cultures without peptides and uninoculated MHB were employed as positive and negative controls, respectively. Colony count assays were performed to determine the minimal bactericidal concentrations (MBCs) for determination of time-killing activity. As previously described, a 50 μl aliquot from each non-turbid well identified in the MIC determination experiment was spread on agar plates.
(§2) To further evaluate the global activity of these peptides, the geometric mean (GM) MIC and the therapeutic index (TI) of each were calculated (Table 3). The TI, a widely used parameter to evaluate cell selectivity and specificity of antimicrobial agents, was calculated as the ratio of MHC (the concentration that causes 10% hemolysis) to the geometric mean of MICs[22]. Higher TIs indicated greater cell selectivity and specificity.

[5] = test system: Staphylococcus aureus ATCC 25923; conditions: ATCC 25923, 24 h
[6] = test system: all Gram-negative strains; assay: Mean MIC and therapeutic index, Gram-negative strains; format: cell-based; conditions: 7 Gram-negative strains of Table 3
Protocol: as §1, §2

[7] = test system: Staphylococcus epidermidis ATCC 12228; conditions: ATCC 12228, 24 h
[8] = test system: Enterococcus faecalis ATCC 29212; conditions: ATCC 29212, 24 h
[9] = test system: Acinetobacter baumannii MT strain; conditions: MT strain, 24 h
[10] = test system: Salmonella Typhimurium ATCC 13311; conditions: ATCC 13311, 24 h
[11] = test system: Escherichia coli ATCC 25922; conditions: ATCC 25922, 24 h
[12] = test system: Listeria monocytogenes 10403 s; conditions: 10403 s, 24 h
[13] = test system: Gram-negative and -positive bacterial strains; assay: MIC against the panel of Gram-negative and -positive bacterial strains; format: cell-based; conditions: 12 strains of Table 3; result in words

| SMILES | MIC [1] | MIC [2] | MIC [3] | GM (Gr.+ strains): geometric mean of MIC values from all Gram-positive strains [4] | MIC [5] | GM (Gr.− strains): geometric mean of MIC values from all Gram-negative strains [6] | MIC [7] | MIC [8] | MIC [9] | MIC [10] | MIC [11] | MIC [12] | antibacterial activity against tested microorganisms [13] |
| --- | --- | --- | --- | --- | --- | --- | --- | --- | --- | --- | --- | --- | --- |
| CC[C@H](C)[C@H](NC(=O)[C@H](CCCNC(=N)N)NC(=O)[C@H](CCCCN)NC(=O)[C@H](C)NC(=O)[C@@H](NC(=O)[C@@H](N)CCCCN)[C@@H](C)CC)C(=O)N[C@@H](Cc1c[nH]c2ccccc12)C(=O)N[C@@H](CCCCN)C(=O)N[C@H](C(=O)N[C@@H](CC(C)C)C(=O)N[C@@H](CCCNC(=N)N)C(=O)N[C@@H](CCCNC(=N)N)C(=O)N[C@@H](CCCNC(=N)N)C(=O)N[C@@H](CC(C)C)C(N)=O)[C@@H](C)CC [PA-14] (H-KIAKRIWKILRRRL-NH2; N-terminus assumed) | 3.91 µg/mL (≈ 2.11 µM) | 62.5 µg/mL (≈ 33.8 µM) | 7.81 µg/mL (≈ 4.22 µM) | 30.86 µg/mL | 15.63 µg/mL (≈ 8.45 µM) | 14.23 µg/mL | 3.91 µg/mL (≈ 2.11 µM) | 125 µg/mL (≈ 67.6 µM) | 3.91 µg/mL (≈ 2.11 µM) | 1.95 µg/mL (≈ 1.05 µM) | 15.63 µg/mL (≈ 8.45 µM) | 1.95 µg/mL (≈ 1.05 µM) | – |
| CC[C@H](C)[C@H](NC(=O)[C@H](CCCNC(=N)N)NC(=O)[C@H](CCCCN)NC(=O)[C@H](C)NC(=O)[C@@H](NC(=O)[C@@H](N)CCCCN)[C@@H](C)CC)C(=O)N[C@@H](Cc1c[nH]c2ccccc12)C(=O)N[C@@H](CCCCN)C(=O)N[C@H](C(=O)N[C@@H](CC(C)C)C(=O)N[C@@H](CCCNC(=N)N)C(=O)N[C@@H](CCCNC(=N)N)C(=O)N[C@@H](CCCNC(=N)N)C(=O)N[C@@H](CC(C)C)C(=O)N[C@@H](Cc1ccccc1)C(=O)N[C@@H](CCCNC(=N)N)C(=O)N[C@@H](CCCNC(=N)N)C(N)=O)[C@@H](C)CC [PA-17] (H-KIAKRIWKILRRRLFRR-NH2; N-terminus assumed) | – | 62.5 µg/mL (≈ 27.1 µM) | 7.81 µg/mL (≈ 3.38 µM) | 12.11 µg/mL | 15.63 µg/mL (≈ 6.77 µM) | 15.63 µg/mL | 3.91 µg/mL (≈ 1.69 µM) | 31.25 µg/mL (≈ 13.5 µM) | – | 3.91 µg/mL (≈ 1.69 µM) | 15.63 µg/mL (≈ 6.77 µM) | 1.95 µg/mL (≈ 0.845 µM) | – |
| CC[C@H](C)[C@H](NC(=O)[C@H](CCCNC(=N)N)NC(=O)[C@H](CCCCN)NC(=O)[C@H](C)NC(=O)[C@@H](NC(=O)[C@@H](N)CCCCN)[C@@H](C)CC)C(=O)N[C@@H](Cc1c[nH]c2ccccc12)C(=O)N[C@@H](CCCCN)C(=O)N[C@H](C(=O)N[C@@H](CC(C)C)C(=O)N[C@@H](CCCNC(=N)N)C(=O)N[C@@H](CCCNC(=N)N)C(=O)N[C@@H](CCCNC(=N)N)C(=O)N[C@@H](CC(C)C)C(=O)N[C@@H](Cc1ccccc1)C(=O)N[C@@H](CCCNC(=N)N)C(=O)N[C@@H](CCCNC(=N)N)C(=O)N[C@H](C(N)=O)C(C)C)[C@@H](C)CC [PA-18] (H-KIAKRIWKILRRRLFRRV-NH2; N-terminus assumed) | – | 250 µg/mL (≈ 104 µM) | 7.81 µg/mL (≈ 3.24 µM) | 12.11 µg/mL | 15.63 µg/mL (≈ 6.49 µM) | 45.76 µg/mL | 3.91 µg/mL (≈ 1.62 µM) | 31.25 µg/mL (≈ 13 µM) | 15.63 µg/mL (≈ 6.49 µM) | 3.91 µg/mL (≈ 1.62 µM) | 31.25 µg/mL (≈ 13 µM) | 1.95 µg/mL (≈ 0.81 µM) | – |
| CC[C@H](C)[C@H](NC(=O)[C@H](CCCNC(=N)N)NC(=O)[C@H](CCCCN)NC(=O)[C@H](C)NC(=O)[C@@H](NC(=O)[C@@H](N)CCCCN)[C@@H](C)CC)C(=O)N[C@@H](Cc1c[nH]c2ccccc12)C(=O)N[C@@H](CCCCN)C(=O)N[C@H](C(=O)N[C@@H](CC(C)C)C(=O)N[C@@H](CCCNC(=N)N)C(=O)N[C@@H](CCCNC(=N)N)C(=O)N[C@@H](CCCNC(=N)N)C(=O)N[C@@H](CC(C)C)C(=O)N[C@@H](Cc1ccccc1)C(=O)N[C@@H](CCCNC(=N)N)C(=O)N[C@@H](CCCNC(=N)N)C(=O)N[C@H](C(=O)N[C@@H](CCCCN)C(=O)N[C@@H](CCCCN)C(=O)N[C@H](C(=O)N[C@@H](C)C(=O)NCC(N)=O)C(C)C)C(C)C)[C@@H](C)CC [P7A3] (H-KIAKRIWKILRRRLFRRVKKVAG-NH2; N-terminus assumed) | – | 250 µg/mL (≈ 86.5 µM) | 7.81 µg/mL (≈ 2.7 µM) | 12.50 µg/mL | 15.63 µg/mL (≈ 5.41 µM) | 42.97 µg/mL | 3.91 µg/mL (≈ 1.35 µM) | 31.25 µg/mL (≈ 10.8 µM) | – | – | 15.63 µg/mL (≈ 5.41 µM) | 3.91 µg/mL (≈ 1.35 µM) | – |
| CC[C@H](C)[C@H](NC(=O)[C@H](CCCNC(=N)N)NC(=O)[C@H](CCCCN)NC(=O)[C@H](C)NC(=O)[C@@H](NC(=O)[C@@H](N)CCCCN)[C@@H](C)CC)C(=O)N[C@@H](Cc1c[nH]c2ccccc12)C(=O)N[C@@H](CCCCN)C(=O)N[C@H](C(=O)N[C@@H](CC(C)C)C(=O)N[C@@H](CCCNC(=N)N)C(=O)N[C@@H](CCCNC(=N)N)C(=O)N[C@@H](CCCNC(=N)N)C(=O)N[C@@H](CC(C)C)C(=O)N[C@@H](Cc1ccccc1)C(N)=O)[C@@H](C)CC [PA-15] (H-KIAKRIWKILRRRLF-NH2; N-terminus assumed) | 7.81 µg/mL (≈ 3.91 µM) | 15.63 µg/mL (≈ 7.83 µM) | 3.91 µg/mL (≈ 1.96 µM) | 9.77 µg/mL | 7.81 µg/mL (≈ 3.91 µM) | 7.54 µg/mL | – | 31.25 µg/mL (≈ 15.7 µM) | – | 1.95 µg/mL (≈ 0.977 µM) | – | 1.95 µg/mL (≈ 0.977 µM) | – |
| CC[C@H](C)[C@H](NC(=O)[C@H](CCCNC(=N)N)NC(=O)[C@H](CCCCN)NC(=O)[C@H](C)NC(=O)[C@@H](NC(=O)[C@@H](N)CCCCN)[C@@H](C)CC)C(=O)N[C@@H](Cc1c[nH]c2ccccc12)C(=O)N[C@@H](CCCCN)C(=O)N[C@H](C(=O)N[C@@H](CC(C)C)C(=O)N[C@@H](CCCNC(=N)N)C(=O)N[C@@H](CCCNC(=N)N)C(=O)N[C@@H](CCCNC(=N)N)C(=O)N[C@@H](CC(C)C)C(=O)N[C@@H](Cc1ccccc1)C(=O)N[C@@H](CCCNC(=N)N)C(N)=O)[C@@H](C)CC [PA-16] (H-KIAKRIWKILRRRLFR-NH2; N-terminus assumed) | 7.81 µg/mL (≈ 3.63 µM) | 62.5 µg/mL (≈ 29 µM) | 3.91 µg/mL (≈ 1.82 µM) | 7.03 µg/mL | 7.81 µg/mL (≈ 3.63 µM) | 13.67 µg/mL | – | 15.63 µg/mL (≈ 7.26 µM) | 7.81 µg/mL (≈ 3.63 µM) | 1.95 µg/mL (≈ 0.906 µM) | 7.81 µg/mL (≈ 3.63 µM) | – | – |
| CC[C@H](C)[C@H](NC(=O)[C@H](CCCNC(=N)N)NC(=O)[C@H](CCCCN)NC(=O)[C@H](C)NC(=O)[C@@H](NC(=O)[C@@H](N)CCCCN)[C@@H](C)CC)C(=O)N[C@@H](Cc1c[nH]c2ccccc12)C(=O)N[C@@H](CCCCN)C(=O)N[C@H](C(=O)N[C@@H](CC(C)C)C(=O)N[C@@H](CCCNC(=N)N)C(=O)N[C@@H](CCCNC(=N)N)C(N)=O)[C@@H](C)CC [P7] (H-KIAKRIWKILRR-NH2; N-terminus assumed) | 7.81 µg/mL (≈ 4.94 µM) | 125 µg/mL (≈ 79.1 µM) | 31.25 µg/mL (≈ 19.8 µM) | 121.09 µg/mL | 62.5 µg/mL (≈ 39.6 µM) | 28.46 µg/mL | 3.91 µg/mL (≈ 2.47 µM) | >250 µg/mL | 7.81 µg/mL (≈ 4.94 µM) | 7.81 µg/mL (≈ 4.94 µM) | 15.63 µg/mL (≈ 9.89 µM) | 7.81 µg/mL (≈ 4.94 µM) | potent antibacterial activity |
